# Measured values reported in patent US10590129B2 (Incozen Therapeutics Pvt. Ltd., priority 2010, dated 2020).
# Structures can show the parent of a compound that is named as a salt.
# Test system: MKN-45 cells
# Experiment: Inhibition of MKN-45 proliferation (MTT)
# Assay type: cell-based, human
# Settings: for inhibition at 1 µM / GI50 / inhibition at 0.1 µM: Homo sapiens, MKN-45, MKN-45 proliferation; for Inhibition (% Inhibition of MKN-45 proliferation) / inhibition at 0.1 µM: 0.1 μM
# Description: Inhibition of MKN-45 Proliferation:
# Cell proliferation assays were carried out using the high Met expressing human gastric adenocarcinoma cell line, MKN-45, according to the following schedule:
# Day 1: Cells were plated in 96-well plates in complete growth medium.
# Day 2: Compounds at desired concentrations were added.
# Day 5: Cell viability was determined using the 3-[4,5-dimethylthiazol-2-yl]-2,5-diphenyltetrazolium bromide (MTT) dye reduction test.
structure (smiles),measurement,setting,value
"Cl.O=C(Nc1nc[nH]n1)c1ccc(-c2ccc3nnn(Cc4ccc5ncccc5c4)c3n2)cc1F [Ex 127, 2-Fluoro-4-(3-(quinolin-6-ylmethyl)-3H-[1,2,3]triazolo[4,5-b]pyridin-5-yl)-N-(1H-1,2,4-triazol-3-yl)benzamide hydrochloride]",inhibition at 1 µM,1 μM,75 to 100%
same,Inhibition (% Inhibition of MKN-45 proliferation),MKN-45 proliferation,A (A = ≥75 to 100%)
"CCNC(=O)c1ccc(-c2ccc3nnn(Cc4cc5cccnc5cc4F)c3n2)cc1Cl [Ex 133, 2-Chloro-N-ethyl-4-(3-((7-fluoroquinolin-6-yl)methyl)-3H-[1,2,3]triazolo[4,5-b]pyridin-5-yl)benzamide]",GI50,,≤ 50 nM
same,inhibition at 0.1 µM,,75 to 100%
"COC(=O)c1ccc(-c2ccc3nnn(Cc4cc5cccnc5cc4F)c3n2)cc1F [Ex 135, Methyl 2-fluoro-4-(3-((7-fluoroquinolin-6-yl)methyl)-3H-[1,2,3]triazolo[4,5-b]pyridin-5-yl)benzoate]",inhibition at 0.1 µM,,< 25%
"NC(=O)c1cccc(-c2ccc3nnn(Cc4ccc5ncccc5c4)c3n2)c1 [Ex 138, 3-(3-(Quinolin-6-ylmethyl)-3H-[1,2,3]triazolo[4,5-b]pyridin-5-yl)benzamide]",inhibition at 0.1 µM,,25 to 50%
same,inhibition at 1 µM,1 μM,75 to 100%
"Cl.NC(=O)c1ccc(-c2ccc3nnn(Cc4cc5cccnc5cc4F)c3n2)cc1F [Ex 141, 2-Fluoro-4-(3-((7-fluoroquinolin-6-yl)methyl)-3H-[1,2,3]triazolo[4,5-b]pyridin-5-yl)benzamide hydrochloride]",Inhibition (% Inhibition of MKN-45 proliferation),MKN-45 proliferation,A (A = ≥75 to 100%)
same,% inhibition @ 1 uM,"MKN-45 proliferation, 1 μM",A (A = ≥75 to 100%)
"Cc1cc(-c2ccc3nnn(Cc4ccc5ncccc5c4)c3n2)ccc1C(N)=O [Ex 142, 2-Methyl-4-(3-(quinolin-6-ylmethyl)-3H-[1,2,3]triazolo[4,5-b]pyridin-5-yl)benzamide]",GI50,,50 to 150 nM
same,inhibition at 0.1 µM,,75 to 100%
"c1cnc2ccc(Cn3nnc4ccc(-c5cn[nH]c5)nc43)cc2c1 [Ex 143, 6-((5-(1H-Pyrazol-4-yl)-3H-[1,2,3]triazolo[4,5-b]pyridin-3-yl)methyl)quinoline]",GI50,,50 to 150 nM
"Cn1cc(-c2ccc3nnn(Cc4ccc5ncccc5c4)c3n2)cn1 [Ex 144, 6-((5-(1-Methyl-1H-pyrazol-4-yl)-3H-[1,2,3]triazolo[4,5-b]pyridin-3-yl)methyl)quinoline]",GI50,,50 to 150 nM
"Cc1n[nH]c2cc(-c3ccc4nnn(Cc5ccc6ncccc6c5)c4n3)ccc12 [Ex 168, 6-((5-(3-Methyl-1H-indazol-6-yl)-3H-[1,2,3]triazolo[4,5-b]pyridin-3-yl)methyl)quinoline]",GI50,,150 to 500 nM
"c1cnc2ccc(Cn3nnc4ccc(-c5ccc6[nH]ccc6c5)nc43)cc2c1 [Ex 169, 6-((5-(1H-Indol-5-yl)-3H-[1,2,3]triazolo[4,5-b]pyridin-3-yl)methyl)quinoline]",GI50,,< 1000 nM
"c1cnc2ccc(Cn3nnc4ccc(-c5ccc6cc[nH]c6c5)nc43)cc2c1 [Ex 170, 6-((5-(1H-Indol-6-yl)-3H-[1,2,3]triazolo[4,5-b]pyridin-3-yl)methyl)quinoline]",GI50,,< 1000 nM
"Clc1cc(-c2ccc3nnn(Cc4ccc5ncccc5c4)c3n2)ccn1 [Ex 171, 6-((5-(2-Chloropyridin-4-yl)-3H-[1,2,3]triazolo[4,5-b]pyridin-3-yl)methyl)quinoline]",GI50,,150 to 500 nM
"Cc1n[nH]c2ccc(-c3ccc4nnn(Cc5ccc6ncccc6c5)c4n3)cc12 [Ex 172, 6-((5-(3-Methyl-1H-indazol-5-yl)-3H-[1,2,3]triazolo[4,5-b]pyridin-3-yl)methyl)quinoline]",GI50,,< 1000 nM
"c1cncc(-c2ccc3nnn(Cc4ccc5ncccc5c4)c3n2)c1 [Ex 173, 6-((5-(Pyridin-3-yl)-3H-[1,2,3]triazolo[4,5-b]pyridin-3-yl)methyl)quinoline]",GI50,,< 1000 nM
"c1cnc2ccc(Cn3nnc4ccc(-c5cnn([C@H]6CCNC6)c5)nc43)cc2c1 [Ex 175, (S)-6-((5-(1-(Pyrrolidin-3-yl)-1H-pyrazol-4-yl)-3H-[1,2,3]triazolo[4,5-b]pyridin-3-yl)methyl)quinoline hydrochloride]",GI50,,150 to 500 nM
"c1cnc2ccc(Cn3nnc4ccc(-c5cnn(CCN6CCOCC6)c5)nc43)cc2c1 [Ex 176, 4-(2-(4-(3-(Quinolin-6-ylmethyl)-3H-[1,2,3]triazolo[4,5-b]pyridin-5-yl)-1H-pyrazol-1-yl)ethyl)morpholine hydrochloride]",GI50,,< 1000 nM
"c1cnc2ccc(Cn3nnc4ccc(-c5cnn(C6CCOCC6)c5)nc43)cc2c1 [Ex 177, 6-((5-(1-(Tetrahydro-2H-pyran-4-yl)-1H-pyrazol-4-yl)-3H-[1,2,3]triazolo[4,5-b]pyridin-3-yl)methyl)quinoline]",GI50,,< 1000 nM
"Cc1nn(C)c2cc(-c3ccc4nnn(Cc5ccc6ncccc6c5)c4n3)ccc12 [Ex 179, 6-((5-(1,3-dimethyl-1H-indazol-6-yl)-3H-[1,2,3]triazolo[4,5-b]pyridin-3-yl)methyl)quinoline]",GI50,,150 to 500 nM
"CCc1nn(C(=O)OC(C)(C)C)c2cc(-c3ccc4nnn(Cc5ccc6ncccc6c5)c4n3)ccc12 [Ex 181, tert-Butyl 3-ethyl-6-(3-(quinolin-6-ylmethyl)-3H-[1,2,3]triazolo[4,5-b]pyridin-5-yl)-1H-indazole-1-carboxylate]",inhibition at 0.1 µM,,< 25%
same,inhibition at 1 µM,1 μM,75 to 100%
"CC(C)(c1ccc2ncccc2c1)n1nnc2ccc(-c3cnn(CCO)c3)nc21 [Ex 190, 2-(4-(3-(2-(Quinolin-6-yl)propan-2-yl)-3H-[1,2,3]triazolo[4,5-b]pyridin-5-yl)-1H-pyrazol-1-yl)ethanol]",inhibition at 0.1 µM,,< 25%
same,inhibition at 1 µM,1 μM,< 25%
"CC(C)(c1ccc2ncccc2c1)n1nnc2ccc(-c3cn[nH]c3)nc21 [Ex 192, 6-(2-(5-(1H-Pyrazol-4-yl)-3H-[1,2,3]triazolo[4,5-b]pyridin-3-yl)propan-2-yl)quinoline]",inhibition at 0.1 µM,,< 25%
same,inhibition at 1 µM,1 μM,< 25%
"O=C(Cn1cc(-c2ccc3nnn(Cc4ccc5ncccc5c4)c3n2)cn1)N1CCCC1 [Ex 200, 1-(Pyrrolidin-1-yl)-2-(4-(3-(quinolin-6-ylmethyl)-3H-[1,2,3]triazolo[4,5-b]pyridin-5-yl)-1H-pyrazol-1-yl)ethanone]",inhibition at 0.1 µM,,< 25%
"COCCn1cc(-c2ccc3nnn(Cc4ccc5ncccc5c4)c3n2)cn1 [Ex 201, 6-((5-(1-(2-Methoxyethyl)-1H-pyrazol-4-yl)-3H-[1,2,3]triazolo[4,5-b]pyridin-3-yl)methyl)quinoline]",inhibition at 0.1 µM,,< 25%
"c1ccc(Nc2ccc3nnn(Cc4ccc5ncccc5c4)c3n2)cc1 [Ex 202, N-Phenyl-3-(quinolin-6-ylmethyl)-3H-[1,2,3]triazolo[4,5-b]pyridin-5-amine]",inhibition at 0.1 µM,,< 25%
"c1ccc(Oc2ccc3nnn(Cc4ccc5ncccc5c4)c3n2)cc1 [Ex 203, 6-((5-Phenoxy-3H-[1,2,3]triazolo[4,5-b]pyridin-3-yl)methyl)quinoline]",inhibition at 0.1 µM,,< 25%
"NC(=O)c1cc(-c2ccc3nnn(Cc4ccc5ncccc5c4)c3n2)ccc1F [Ex 206, 2-Fluoro-5-(3-(quinolin-6-ylmethyl)-3H-[1,2,3]triazolo[4,5-b]pyridin-5-yl)benzamide]",inhibition at 0.1 µM,,50 to 75%
"NC(=O)c1ccc(-c2ccc3nnn(Cc4c(F)cc5ncccc5c4F)c3n2)cc1Cl [Ex 207, 2-Chloro-4-(3-((5,7-difluoroquinolin-6-yl)methyl)-3H-[1,2,3]triazolo[4,5-b]pyridin-5-yl)benzamide]",GI50,,≤ 50 nM
same,inhibition at 0.1 µM,,75 to 100%
"C/C(=N/NC(N)=O)c1ccc2nnn(Cc3ccc4ncccc4c3)c2n1 [Ex 209, 2-(1-(3-(Quinolin-6-ylmethyl)-3H-[1,2,3]triazolo[4,5-b]pyridin-5-yl)ethylidene) hydrazinecarboxamide]",GI50,,≤ 50 nM
same,inhibition at 0.1 µM,,75 to 100%
"NC(=O)c1ccc(-c2ccc3nnn(Cc4ccc5ncsc5c4)c3n2)cc1Cl [Ex 210, 4-(3-(Benzo[d]thiazol-6-ylmethyl)-3H-[1,2,3]triazolo[4,5-b]pyridin-5-yl)-2-chlorobenzamide]",GI50,,≤ 50 nM
same,inhibition at 0.1 µM,,75 to 100%
"CC(C)(O)c1ccc(-c2ccc3nnn(Cc4ccc5ncccc5c4)c3n2)cc1F [Ex 211, 2-(2-Fluoro-4-(3-(quinolin-6-ylmethyl)-3H-[1,2,3]triazolo[4,5-b]pyridin-5-yl)phenyl)propan-2-ol]",GI50,,150 to 500 nM
"NC(=O)c1cc(-c2ccc3nnn(Cc4ccc5ncccc5c4)c3n2)ccc1Cl [Ex 212, 2-Chloro-5-(3-(quinolin-6-ylmethyl)-3H-[1,2,3]triazolo[4,5-b]pyridin-5-yl)benzamide]",inhibition at 0.1 µM,,75 to 100%
same,inhibition at 1 µM,1 μM,25 to 50%
"NC(=O)c1ccc(-c2ccc3ncn(Cc4ccc5ncccc5c4)c3n2)cc1Cl [Ex 215, 2-Chloro-4-(3-(quinolin-6-ylmethyl)-3H-imidazo[4,5-b]pyridin-5-yl)benzamide]",inhibition at 0.1 µM,,< 25%
"CC(=NO)c1ccc2nnn(Cc3ccc4ncccc4c3)c2n1 [Ex 216, 1-(3-(Quinolin-6-ylmethyl)-3H-[1,2,3]triazolo[4,5-b]pyridin-5-yl)ethanone oxime]",inhibition at 0.1 µM,,< 25%
"CON=C(C)c1ccc2nnn(Cc3ccc4ncccc4c3)c2n1 [Ex 217, 1-(3-(Quinolin-6-ylmethyl)-3H-[1,2,3]triazolo[4,5-b]pyridin-5-yl)ethanone O-methyl oxime]",inhibition at 0.1 µM,,50 to 75%
"CC(=O)NN=C(C)c1ccc2nnn(Cc3ccc4ncccc4c3)c2n1 [Ex 218, N′-(1-(3-(Quinolin-6-ylmethyl)-3H-[1,2,3]triazolo[4,5-b]pyridin-5-yl)ethylidene) acetohydrazide]",inhibition at 0.1 µM,,< 25%
"CN1CCN(c2ccc3nnn(Cc4ccc5ncccc5c4)c3n2)CC1 [Ex 219, 6-((5-(4-Methylpiperazin-1-yl)-3H-[1,2,3]triazolo[4,5-b]pyridin-3-yl)methyl)quinoline]",inhibition at 0.1 µM,,< 25%
"NC(=O)c1ccc(-c2ccc3nnn(Cc4ccc5ncccc5c4)c3n2)cc1C(F)(F)F [Ex 223, 4-(3-(Quinolin-6-ylmethyl)-3H-[1,2,3]triazolo[4,5-b]pyridin-5-yl)-2-(trifluoromethyl)benzamide]",inhibition at 0.1 µM,,75 to 100%
